Data: PubChem BioAssay AID2060329 (Molecular Pharmacology Branch, DTP, NCI, 2025)

Tested on: MCF7 multi-cell spheroids with HUVEC/MSC, viability
Assay: Anticancer human tumor MCF7 cell line growth inhibition [IpAb];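 also: spheroids exposed to agents for seven days before readout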
Settings: for IC50: curve of first compound; for viability, T/C: stronger effect = lower value
Procedure, shortened: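 Combinations with ipatasertib or abemaciclib were tested on tumour spheroids holding HUVEC (25%) and MSC (15%) alongside 60% malignant cells. Top concentration was at or near clinical Cmax (10 microM if undefined), descending in half-log steps.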

C=CC(=O)N1CCN(c2nc(=O)n(-c3c(C)ccnc3C(C)C)c3nc(-c4c(O)cccc4F)c(F)cc23)C(C)C1 (stereo not given) + CC(C)NCC(C(=O)N1CCN(c2ncnc3c2C(C)CC3O)CC1)c1ccc(Cl)cc1
IC50 (second compound 0.1 µM): 8300 nM
IC50 (second compound 0.316 µM): 6940 nM
IC50 (second compound 1 µM): 2710 nM
IC50 (second compound 3.16 µM): 1060 nM
IC50 (second compound 10 µM): < 31.6 nM
viability, T/C (second compound 0.1 µM, first compound 0.0316 µM): 82.4%
viability, T/C (second compound 0.1 µM, first compound 0.1 µM): 99.8%
viability, T/C (second compound 0.1 µM, first compound 0.316 µM): 100%
viability, T/C (second compound 0.1 µM, first compound 1 µM): 90.8%
viability, T/C (second compound 0.1 µM, first compound 3.16 µM): 78.3%
viability, T/C (second compound 0.1 µM, first compound 10 µM): 44.5%
viability, T/C (second compound 0.316 µM, first compound 0.0316 µM): 79.5%
viability, T/C (second compound 0.316 µM, first compound 0.1 µM): 87.3%
viability, T/C (second compound 0.316 µM, first compound 0.316 µM): 77.1%
viability, T/C (second compound 0.316 µM, first compound 1 µM): 73.3%
viability, T/C (second compound 0.316 µM, first compound 3.16 µM): 68.4%
viability, T/C (second compound 0.316 µM, first compound 10 µM): 41.6%
viability, T/C (second compound 1 µM, first compound 0.0316 µM): 74.5%
viability, T/C (second compound 1 µM, first compound 0.1 µM): 73.3%
viability, T/C (second compound 1 µM, first compound 0.316 µM): 65.4%
viability, T/C (second compound 1 µM, first compound 1 µM): 65.8%
viability, T/C (second compound 1 µM, first compound 3.16 µM): 46.6%
viability, T/C (second compound 1 µM, first compound 10 µM): 32.8%
viability, T/C (second compound 3.16 µM, first compound 0.0316 µM): 58.6%
viability, T/C (second compound 3.16 µM, first compound 0.1 µM): 53.4%
viability, T/C (second compound 3.16 µM, first compound 0.316 µM): 56.6%
viability, T/C (second compound 3.16 µM, first compound 1 µM): 50.2%
viability, T/C (second compound 3.16 µM, first compound 3.16 µM): 38.7%
viability, T/C (second compound 3.16 µM, first compound 10 µM): 22.6%
viability, T/C (second compound 10 µM, first compound 0.0316 µM): 47.7%
viability, T/C (second compound 10 µM, first compound 0.1 µM): 41.3%
viability, T/C (second compound 10 µM, first compound 0.316 µM): 44%
viability, T/C (second compound 10 µM, first compound 1 µM): 36.3%
viability, T/C (second compound 10 µM, first compound 3.16 µM): 40.9%
viability, T/C (second compound 10 µM, first compound 10 µM): 22.6%

CC(C)(C)c1cnc(CSc2cnc(NC(=O)C3CCNCC3)s2)o1 + CC(C)NCC(C(=O)N1CCN(c2ncnc3c2C(C)CC3O)CC1)c1ccc(Cl)cc1
IC50 (second compound 0.1 µM): 89.4 nM
IC50 (second compound 0.316 µM): 87.5 nM
IC50 (second compound 1 µM): 81.1 nM
IC50 (second compound 3.16 µM): 40.4 nM
IC50 (second compound 10 µM): 9.49 nM
viability, T/C (second compound 0.1 µM, first compound 0.00949 µM): 87.9%
viability, T/C (second compound 0.1 µM, first compound 0.03 µM): 98%
viability, T/C (second compound 0.1 µM, first compound 0.0949 µM): 47.7%
viability, T/C (second compound 0.1 µM, first compound 0.3 µM): 22.2%
viability, T/C (second compound 0.1 µM, first compound 0.949 µM): 29.6%
viability, T/C (second compound 0.1 µM, first compound 3 µM): 32.6%
viability, T/C (second compound 0.316 µM, first compound 0.00949 µM): 83.9%
viability, T/C (second compound 0.316 µM, first compound 0.03 µM): 87%
viability, T/C (second compound 0.316 µM, first compound 0.0949 µM): 47.3%
viability, T/C (second compound 0.316 µM, first compound 0.3 µM): 22.4%
viability, T/C (second compound 0.316 µM, first compound 0.949 µM): 29%
viability, T/C (second compound 0.316 µM, first compound 3 µM): 29.9%
viability, T/C (second compound 1 µM, first compound 0.00949 µM): 76.5%
viability, T/C (second compound 1 µM, first compound 0.03 µM): 75.6%
viability, T/C (second compound 1 µM, first compound 0.0949 µM): 45.9%
viability, T/C (second compound 1 µM, first compound 0.3 µM): 21.6%
viability, T/C (second compound 1 µM, first compound 0.949 µM): 25.3%
viability, T/C (second compound 1 µM, first compound 3 µM): 28.9%
viability, T/C (second compound 3.16 µM, first compound 0.00949 µM): 54.8%
viability, T/C (second compound 3.16 µM, first compound 0.03 µM): 61.6%
viability, T/C (second compound 3.16 µM, first compound 0.0949 µM): 26.4%
viability, T/C (second compound 3.16 µM, first compound 0.3 µM): 20.2%
viability, T/C (second compound 3.16 µM, first compound 0.949 µM): 22.2%
viability, T/C (second compound 3.16 µM, first compound 3 µM): 24.9%
viability, T/C (second compound 10 µM, first compound 0.00949 µM): 47.1%
viability, T/C (second compound 10 µM, first compound 0.03 µM): 49.8%
viability, T/C (second compound 10 µM, first compound 0.0949 µM): 14.4%
viability, T/C (second compound 10 µM, first compound 0.3 µM): 17.9%
viability, T/C (second compound 10 µM, first compound 0.949 µM): 21.1%
viability, T/C (second compound 10 µM, first compound 3 µM): 22.1%
